Organism: Rattus norvegicus
Assay: Open TG-GATES - Regimen: Single
Format: toxicity, organism-based, Sprague-Dawley
Design: regimen Single, gender Male, age 6 weeks
Conditions: in vivo, po, 200 mg/kg, route gavage, dose level Low; for APTT / Bas / Eos / Fbg / Hb / Ht / Lym / MCH / MCHC / MCV / Mono / Neu / PT / Plat / RBC / Ret / WBC: tissue Blood; for KIDNEY_L / KIDNEY_R / KIDNEY_TOTAL: tissue Kidney; for LIVER: tissue Liver; for A/G / ALP / ALT / AST / BUN / CRE / Ca / Cl / DBIL / GLC / IP / K / LDH / Na / PL / RALB / TBIL / TC / TG / TP / gamma-GTP: tissue Plasma

NNC(=O)c1ccncc1 [ISONIAZID]
TERMINAL_BW (3 h): 222.6 g | APTT (3 h): 18.4 s | Bas (3 h): 0% | Eos (3 h): 0.8% | Fbg (3 h): 239.8 mg/dL | Hb (3 h): 13.6 g/dL | Ht (3 h): 38% | Lym (3 h): 74.4% | MCH (3 h): 22.1 pg | MCHC (3 h): 35.8% | MCV (3 h): 61.6 fL | Mono (3 h): 2% | Neu (3 h): 22.4% | PT (3 h): 12.2 s | Plat (3 h): 126 x10_4/uL | RBC (3 h): 617.4 x10_4/ul | Ret (3 h): 7.7% | WBC (3 h): 80.9 x10_2/uL | KIDNEY_L (3 h): 1 g | KIDNEY_R (3 h): 1 g | KIDNEY_TOTAL (3 h): 2 g | LIVER (3 h): 9.3 g | A/G (3 h): 1.6 | ALP (3 h): 918.8 IU/L | ALT (3 h): 35.2 IU/L | AST (3 h): 70 IU/L | BUN (3 h): 8.8 mg/dL | CRE (3 h): 0.4 mg/dL | Ca (3 h): 10.3 mg/dL | Cl (3 h): 105.2 meq/L | DBIL (3 h): 0.066 mg/dL | GLC (3 h): 211 mg/dL | IP (3 h): 10.1 mg/dL | K (3 h): 3.6 meq/L | LDH (3 h): 175.2 IU/L | Na (3 h): 142.8 meq/L | PL (3 h): 137 mg/dL | RALB (3 h): 3.5 g/dL | TBIL (3 h): 0.1 mg/dL | TC (3 h): 76.4 mg/dL | TG (3 h): 57.8 mg/dL | TP (3 h): 5.7 g/dL | gamma-GTP (3 h): 1 IU/L | TERMINAL_BW (6 h): 219 g | APTT (6 h): 18.5 s | Bas (6 h): 0% | Eos (6 h): 1% | Fbg (6 h): 225 mg/dL | Hb (6 h): 13.7 g/dL | Ht (6 h): 38.3% | Lym (6 h): 76.4% | MCH (6 h): 21.7 pg | MCHC (6 h): 35.8% | MCV (6 h): 60.5 fL | Mono (6 h): 2.6% | Neu (6 h): 19% | PT (6 h): 12 s | Plat (6 h): 126.8 x10_4/uL | RBC (6 h): 633.8 x10_4/ul | Ret (6 h): 7.6% | WBC (6 h): 87.2 x10_2/uL | KIDNEY_L (6 h): 0.9 g | KIDNEY_R (6 h): 0.9 g | KIDNEY_TOTAL (6 h): 1.9 g | LIVER (6 h): 9.6 g | A/G (6 h): 1.5 | ALP (6 h): 735.6 IU/L | ALT (6 h): 28.4 IU/L | AST (6 h): 58 IU/L | BUN (6 h): 8.2 mg/dL | CRE (6 h): 0.4 mg/dL | Ca (6 h): 10.2 mg/dL | Cl (6 h): 104.8 meq/L | DBIL (6 h): 0.064 mg/dL | GLC (6 h): 211 mg/dL | IP (6 h): 9.5 mg/dL | K (6 h): 3.9 meq/L | LDH (6 h): 197.4 IU/L | Na (6 h): 142.4 meq/L | PL (6 h): 140.8 mg/dL | RALB (6 h): 3.3 g/dL | TBIL (6 h): 0.1 mg/dL | TC (6 h): 76 mg/dL | TG (6 h): 71.2 mg/dL | TP (6 h): 5.5 g/dL | gamma-GTP (6 h): 1 IU/L | TERMINAL_BW (9 h): 218.2 g | APTT (9 h): 18.8 s | Bas (9 h): 0.2% | Eos (9 h): 0.6% | Fbg (9 h): 228.2 mg/dL | Hb (9 h): 13.7 g/dL | Ht (9 h): 37.9% | Lym (9 h): 75% | MCH (9 h): 21.8 pg | MCHC (9 h): 36% | MCV (9 h): 60.6 fL | Mono (9 h): 3% | Neu (9 h): 20.8% | PT (9 h): 12.3 s | Plat (9 h): 119 x10_4/uL | RBC (9 h): 626.2 x10_4/ul | Ret (9 h): 7.8% | WBC (9 h): 82.5 x10_2/uL | KIDNEY_L (9 h): 0.9 g | KIDNEY_R (9 h): 0.9 g | KIDNEY_TOTAL (9 h): 1.8 g | LIVER (9 h): 8.8 g | A/G (9 h): 1.7 | ALP (9 h): 793.2 IU/L | ALT (9 h): 23.4 IU/L | AST (9 h): 44.6 IU/L | BUN (9 h): 9.4 mg/dL | CRE (9 h): 0.4 mg/dL | Ca (9 h): 10.5 mg/dL | Cl (9 h): 105 meq/L | DBIL (9 h): 0.064 mg/dL | GLC (9 h): 195.2 mg/dL | IP (9 h): 9.3 mg/dL | K (9 h): 3.9 meq/L | LDH (9 h): 211.4 IU/L | Na (9 h): 142.8 meq/L | PL (9 h): 150.2 mg/dL | RALB (9 h): 3.5 g/dL | TBIL (9 h): 0.1 mg/dL | TC (9 h): 80.2 mg/dL | TG (9 h): 77.2 mg/dL | TP (9 h): 5.5 g/dL | gamma-GTP (9 h): 1 IU/L | TERMINAL_BW (24 h): 229.4 g | APTT (24 h): 18.3 s | Bas (24 h): 0.8% | Eos (24 h): 1% | Fbg (24 h): 229.2 mg/dL | Hb (24 h): 13.5 g/dL | Ht (24 h): 37.6% | Lym (24 h): 78.8% | MCH (24 h): 21.7 pg | MCHC (24 h): 36.1% | MCV (24 h): 60 fL | Mono (24 h): 2.4% | Neu (24 h): 16% | PT (24 h): 11.7 s | Plat (24 h): 134.2 x10_4/uL | RBC (24 h): 626.6 x10_4/ul | Ret (24 h): 6.5% | WBC (24 h): 89.2 x10_2/uL | KIDNEY_L (24 h): 1 g | KIDNEY_R (24 h): 1 g | KIDNEY_TOTAL (24 h): 2 g | LIVER (24 h): 10.3 g | A/G (24 h): 1.6 | ALP (24 h): 1043.4 IU/L | ALT (24 h): 30 IU/L | AST (24 h): 58.2 IU/L | BUN (24 h): 15.6 mg/dL | CRE (24 h): 0.4 mg/dL | Ca (24 h): 10.8 mg/dL | Cl (24 h): 103 meq/L | DBIL (24 h): 0.06 mg/dL | GLC (24 h): 200.4 mg/dL | IP (24 h): 8.5 mg/dL | K (24 h): 4.3 meq/L | LDH (24 h): 221.4 IU/L | Na (24 h): 141.8 meq/L | PL (24 h): 139 mg/dL | RALB (24 h): 3.6 g/dL | TBIL (24 h): 0.1 mg/dL | TC (24 h): 71.4 mg/dL | TG (24 h): 101.6 mg/dL | TP (24 h): 5.7 g/dL | gamma-GTP (24 h): 1.4 IU/L
